According to patent US20250215030A1, “STAT MODULATORS AND USES THEREOF” (Recludix Pharma, Inc., priority 2022, published 2025):
Like-named read-outs stand apart in the source and are kept apart here.

Target: T1, pSTAT3 (pY705-STAT3) (Homo sapiens, UniProt P40763)
T1 construct: host or cells: cryopreserved PBMC
Assay: MSD-pSTAT-PBMC Assay (pSTAT3, IL-6 stimulated)
Type: cell-based
Source text: Cryopreserved Peripheral Blood Mononuclear Cells (PBMC) are from AllCells. Recombinant Human IL-4 and IL-6 are from Peprotech. Mouse monoclonal anti-STAT3 antibody, rabbit monoclonal anti-pY705-STAT3 antibody, rabbit monoclonal Anti-pY641-STAT6 antibody, and lysis buffer are from Cell Signaling Technology (CST). Mouse monoclonal anti-STAT6 antibody is from BioLegend. Assay plates, blocker, and anti-rabbit secondary antibody are from Meso Scale Discovery (MSD).
Cryopreserved PBMCs were thawed out and allowed to recover overnight in IMDM+10% heat-inactivated FBS prior to plating 50,000 (STAT3) or 25,000 (STAT6) cells per well in 96-well U-bottom tissue culture plates. Cells were treated with compound for 3 hrs, then stimulated with 10 ng/mL IL-6 (STAT3) or 1 ng/mL IL-4 (STAT6) for 10 min. Cells were then spun down and washed with ice-cold PBS prior to lysing the cell pellet with 1× lysis buffer (CST) with 1× HALT protease and phosphatase inhibitor cocktail (Thermo). Lysates were transferred to and incubated overnight at 4° C. with shaking in QuickPlex 96-well high bind assay plates (MSD) pre-coated overnight with 30 μL per well of 0.6 μg/mL mouse monoclonal anti-STAT3 antibody (STAT3) or 2 μg/mL mouse monoclonal anti-STAT6 antibody (STAT6) in 1×PBS, and pre-blocked for 1 hour with 3% Blocker-A (MSD). Captured protein in the assay plates were then washed and probed with 25 μL per well of 0.25 μg/ml rabbit monoclonal anti-pY705-STAT3 antibody (STAT3) or 0.18 μg/ml rabbit monoclonal Anti-pY641-STAT6 antibody (STAT6) in 1% Blocker-A for 1 hour at room temperature with shaking, then washed and probed with 25 ul per well of 1 ug/mi Sulfo-TAG Labeled Goat Anti-Rabbit Antibody (MSD) in 1% Blocker-A for 1 hour at room temperature with shaking. Assay plates were then washed and 150 μL of 1× Read Buffer-T (MSD) was added to each well prior to reading on an SQ120 MSD Plate Reader. Assay signal from each sample was subtracted by the signal from unstimulated control wells and normalized to DMSO control wells. IC50 values were calculated using Graph Pad Prism Dose-Response Nonlinear Regression with variable slope. For both pSTAT3 and pSTAT6 A=≤100 nM; B=>100-1000 nM; C=>1000-3000 nM; and D=>3 μM.

[1] = PBMC, compound 3 hrs, then 10 ng/mL IL-6 for 10 min, MSD pY705-STAT3, read-out: pSTAT3

T1 sequence (P40763 whole entry): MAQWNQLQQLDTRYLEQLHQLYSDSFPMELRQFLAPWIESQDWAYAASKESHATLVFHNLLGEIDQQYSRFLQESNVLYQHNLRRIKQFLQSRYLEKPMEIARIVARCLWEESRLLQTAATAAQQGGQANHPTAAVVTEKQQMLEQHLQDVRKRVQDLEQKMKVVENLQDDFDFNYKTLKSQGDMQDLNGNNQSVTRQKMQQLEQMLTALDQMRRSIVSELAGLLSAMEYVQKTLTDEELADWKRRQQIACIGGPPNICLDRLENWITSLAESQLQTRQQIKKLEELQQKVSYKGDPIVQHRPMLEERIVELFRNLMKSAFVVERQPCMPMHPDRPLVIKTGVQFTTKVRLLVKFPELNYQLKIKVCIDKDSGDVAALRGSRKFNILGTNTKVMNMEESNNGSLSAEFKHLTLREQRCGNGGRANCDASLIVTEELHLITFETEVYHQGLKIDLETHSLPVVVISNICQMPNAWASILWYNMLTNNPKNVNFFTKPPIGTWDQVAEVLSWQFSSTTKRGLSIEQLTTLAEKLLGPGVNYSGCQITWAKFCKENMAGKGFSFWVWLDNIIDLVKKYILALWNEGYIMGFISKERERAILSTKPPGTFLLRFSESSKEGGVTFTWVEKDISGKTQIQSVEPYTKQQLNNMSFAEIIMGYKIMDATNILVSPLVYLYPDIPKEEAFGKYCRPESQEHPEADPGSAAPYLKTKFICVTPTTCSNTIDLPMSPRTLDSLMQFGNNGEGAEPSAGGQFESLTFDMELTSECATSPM

SMILES | IC50 [1] [nM] | IC50 [nM]
Cn1cnnc1C1CN(C(=O)[C@@H]2CC[C@@H]3C[C@@H]4C[C@@H]4C[C@H](NC(=O)c4cc5cc(C(F)(F)P(=O)(OCCSC(=O)C(C)(C)C)OCCSC(=O)C(C)(C)C)ccc5s4)C(=O)N32)C1 [Compound 201, S,S′-((((difluoro(2-(((3S,6S,7aR, 8aS,9aR)-3-(3-(4-methyl-4H-1,2,4-triazol-3-yl)azetidine-1-carbonyl)-5-oxodecahydro-1H-cyclopropa[d]pyrrolo[1,2-a]azocin-6-yl)carbamoyl)benzo[b]thiophen-5-yl)methyl)phosphoryl)bis(oxy))bis(ethane-2,1-diyl)) bis(2,2-dimethyl-propanethioate)] | < 100 | –
COC(=O)[C@H](C)NP(=O)(Cc1ccc2sc(C(=O)N[C@H]3C[C@@H]4C[C@@H]4C[C@H]4CC[C@@H](C(=O)N5CC(C(=O)N6CCOCC6)C5)N4C3=O)cc2c1)Oc1ccccc1 (stereo partly drawn) [Compound 216, methyl (((2-(((3S,6S,7aS, 8aR,9aR)-3-(3-(morpholine-4-carbonyl)azetidine-1-carbonyl)-5-oxodecahydro-1H-cyclopropa [d]pyrrolo[1,2-a]azocin-6-yl)carbamoyl)benzo[b]thiophen-5-yl)methyl) (phenoxy)phosphoryl)-L-alaninate] | 100 to 1000 | –
CCCOC(=O)[C@H](C)NP(=O)(Cc1ccc2sc(C(=O)N[C@H]3C[C@@H]4C[C@@H]4C[C@H]4CC[C@@H](C(=O)N5CC(C(=O)N6CCOCC6)C5)N4C3=O)cc2c1)Oc1ccccc1 (stereo partly drawn) [Compound 217, propyl (((2-(((3S,6S,7aS, 8aR,9aR)-3-(3-(morpholine-4-carbonyl)azetidine-1-carbonyl)-5-oxodecahydro-1H-cyclopropa[d]pyrrolo[1,2-a]azocin-6-yl)carbamoyl)benzo[b]thiophen-5-yl)methyl) (phenoxy)phosphoryl)-L-alaninate] | 100 to 1000 | –
CC(C)(C)C(=O)SCCOP(=O)(OCCSC(=O)C(C)(C)C)C(F)(F)c1ccc2ccc(C(=O)N[C@H]3C[C@@H]4C[C@@H]4C[C@H]4CC[C@@H](C(=O)N5CC(n6ccnc6)C5)N4C3=O)cc2c1 [Compound 221, S,S′-(((((7-(((3S,6S,7aS, 8aR,9aR)-3-(3-(1H-imidazol-1-yl)azetidine-1-carbonyl)-5-oxodecahydro-1H-cyclopropa[d]pyrrolo[1,2-a]azocin-6-yl)carbamoyl)naphthalen-2-yl)difluoromethyl)phosphoryl)bis(oxy))bis(ethane-2,1-diyl)) bis(2,2-dimethyl-propanethioate)] | < 100 | –
CC(C)OC(=O)OCOP(=O)(Cc1ccc2sc(C(=O)N[C@H]3C[C@H]4C[C@H]4C[C@H]4CC[C@@H](C(=O)N[C@@H]5CCN(c6cccnc6)C5)N4C3=O)cc2c1)OCOC(=O)OC(C)C [Compound 226, diisopropyl (((((2-(((3S,6S,7aR, 8aS,9aR)-5-oxo-3-(((R)-1-(pyridin-3-yl)pyrrolidin-3-yl)carbamoyl)decahydro-1H-cyclopropa[d]pyrrolo[1,2-a]azocin-6-yl)carbamoyl)benzo[b]thiophen-5-yl)methyl)phosphoryl)bis(oxy))bis(methylene)) bis(carbonate)] | < 100 | –
CC(C)(C)C(=O)SCCOP(=O)(OCCSC(=O)C(C)(C)C)C(F)(F)c1ccc2sc(C(=O)N[C@H]3C[C@@H]4C[C@@H]4C[C@H]4CC[C@@H](C(=O)N5CC(F)(c6ccc(C#N)cc6)C5)N4C3=O)cc2c1 [Compound 227, S,S′-(((((2-(((3S,6S,7aS, 8aR,9aR)-3-(3-(4-cyanophenyl)-3-fluoroazetidine-1-carbonyl)-5-oxodecahydro-1H-cyclopropa[d]pyrrolo[1,2-a]azocin-6-yl)carbamoyl)benzo[b]thiophen-5-yl)difluoromethyl)phosphoryl)bis(oxy))bis(ethane-2,1-diyl)) bis(2,2-dimethyl-propanethioate)] | < 100 | –
CC(C)CC(=O)SCCOP(=O)(OCCSC(=O)CC(C)C)C(F)(F)c1ccc2sc(C(=O)N[C@H]3C[C@@H]4C[C@@H]4C[C@H]4CC[C@@H](C(=O)N5CC(c6ncccn6)C5)N4C3=O)cc2c1 [Compound 229, S,S′-((((difluoro(2-(((3S,6S,7aS, 8aR,9aR)-5-oxo-3-(3-(pyrimidin-2-yl)azetidine-1-carbonyl)decahydro-1H-cyclopropa[d]pyrrolo[1,2-a]azocin-6-yl)carbamoyl)benzo[b]thiophen-5-yl)methyl)phosphoryl)bis(oxy))bis(ethane-2,1-diyl)) bis(3-methylbutane thioate)] | < 100 | –
CCCOC(=O)[C@H](C)NP(=O)(Cc1ccc2sc(C(=O)N[C@H]3C[C@H]4C[C@H]4CC4CC[C@@H](C(=O)N[C@H]5CN(C(C)=O)C[C@@H]5F)N4C3=O)cc2c1)Oc1ccccc1 (stereo partly drawn) [Compound 245, propyl(((2-(((3S,6S,7aR,8aS,9aR)-3-(((3S,4S)-1-acetyl-4-fluoropyrrolidin-3-yl)carbamoyl)-5-oxodecahydro-1H-cyclopropa[d]pyrrolo[1,2-a]azocin-6-yl)carbamoyl)benzo[b]thiophen-5-yl)methyl)(phenoxy)phosphoryl)-L-alaninate] | – | 1000 to 3000
CCCOC(=O)[C@H](C)NP(=O)(Oc1ccccc1)C(F)c1ccc2sc(C(=O)N[C@H]3C[C@H]4C[C@H]4C[C@H]4CC[C@@H](C(=O)N5CC(c6cnccc6F)C5)N4C3=O)cc2c1 (stereo partly drawn) [Compound 249, propyl ((fluoro(2-(((3S,6S,7aR,8aS,9aR)-3-(3-(4-fluoropyridin-3-yl)azetidine-1-carbonyl)-5-oxodecahydro-1H-cyclopropa[d]pyrrolo[1,2-a]azocin-6-yl)carbamoyl)benzo[b]thiophen-5-yl)methyl)(phenoxy)phosphoryl)-L-alaninate] | < 100 | –
CCCOC(=O)[C@H](C)NP(=O)(Cc1ccc2sc(C(=O)N[C@H]3C[C@H]4C[C@H]4C[C@H]4CC[C@@H](C(=O)N5CC(c6cnccc6F)C5)N4C3=O)cc2c1)Oc1ccccc1 (stereo partly drawn) [Compound 251, propyl(((2-(((3S,6S,7aR,8aS,9aR)-3-(3-(4-fluoropyridin-3-yl)azetidine-1-carbonyl)-5-oxodecahydro-1H-cyclopropa[d]pyrrolo[1,2-a]azocin-6-yl)carbamoyl)benzo[b]thiophen-5-yl)methyl)(phenoxy)phosphoryl)-L-alaninate] | – | < 100
CCCOC(=O)[C@H](C)NP(=O)(Oc1ccccc1)C(F)c1ccc2sc(C(=O)N[C@H]3C[C@H]4C[C@H]4C[C@H]4CC[C@@H](C(=O)N[C@H]5CN(C(C)=O)C[C@@H]5F)N4C3=O)cc2c1 (stereo partly drawn) [Compound 255, propyl(((2-(((3S,6S,7aR,8aS,9aR)-3-(((3S,4S)-1-acetyl-4-fluoropyrrolidin-3-yl)carbamoyl)-5-oxodecahydro-1H-cyclopropa[d]pyrrolo[1,2-a]azocin-6-yl)carbamoyl)benzo[b]thiophen-5-yl)fluoromethyl)(phenoxy)phosphoryl)-L-alaninate] | – | 100 to 1000
CCCOC(=O)[C@H](C)NP(=O)(Oc1ccccc1)C(F)c1ccc2sc(C(=O)N[C@H]3C[C@@H]4C[C@@H]4C[C@H]4CC[C@@H](C(=O)N5CC(c6cnccc6F)C5)N4C3=O)cc2c1 (stereo partly drawn) [Compound 263, propyl ((fluoro(2-(((3S,6S,7aS,8aR,9aR)-3-(3-(4-fluoropyridin-3-yl)azetidine-1-carbonyl)-5-oxodecahydro-1H-cyclopropa[d]pyrrolo[1,2-a]azocin-6-yl)carbamoyl)benzo[b]thiophen-5-yl)methyl)(phenoxy)phosphoryl)-L-alaniante] | < 100 | –
CCCOC(=O)[C@H](C)NP(=O)(Cc1ccc2sc(C(=O)N[C@H]3C[C@@H]4C[C@@H]4C[C@H]4CC[C@@H](C(=O)N5CC(c6cnccc6F)C5)N4C3=O)cc2c1)Oc1ccccc1 (stereo partly drawn) [Compound 264, propyl (((2-(((3S,6S,7aS,8aR,9aR)-3-(3-(4-fluoropyridin-3-yl)azetidine-1-carbonyl)-5-oxodecahydro-1H-cyclopropa[d]pyrrolo[1,2-a]azocin-6-yl)carbamoyl)benzo[b]thiophen-5-yl)methyl)(phenoxy)phosphoryl)-L-alaninate] | < 100 | –
CCCOC(=O)[C@H](C)NP(=O)(Oc1ccccc1)C(F)c1ccc2sc(C(=O)N[C@H]3C[C@H]4C[C@H]4C[C@H]4CC[C@@H](C(=O)N[C@H]5CN(c6cccnc6)C[C@@H]5F)N4C3=O)cc2c1 (stereo partly drawn) [Compound 268, propyl ((fluoro(2-(((3S,6S,7aR,8aS,9aR)-3-(((3S,4S)-4-fluoro-1-(pyridin-3-yl)pyrrolidin-3-yl)carbamoyl)-5-oxodecahydro-1H-cyclopropa[d]pyrrolo[1,2-a]azocin-6-yl)carbamoyl)benzo[b]thiophen-5-yl)methyl)(phenoxy)phosphoryl)-L-alaninate] | < 100 | –
